What was measured:
mice [1] = test: Muscle relaxing and sedative activity in mice (slowly rotating wire cylinders, Young and Lewis); type: in vivo, NMRI-mice, female; settings: Mus musculus, po, read-out: ED50 (50% of the animals fall out of rotating cylinder)
Method: 2. Muscle relaxing and sedative activity in mice:
The muscle relaxing and sedative activity was tested according to the method of Young and Lewis (Science 105, 368 (1947)) with female NMRI-mice of a specific breed having a body weight of from 20 to 26 gm. The test apparatus comprises slowly turning wire cylinders, sloped for 30° against the vertical line (length: 43 cm; diameter: 22 cm; mesh-size of the wire netting: 0.6 cm). After peroral administration of a suspension of the substance under test in 1% tylose suspension to groups of 10 mice/dose, their bearing in the slowly rotating cylinders (2 rotations/minute) was observed and was compared with a control group. The dose (ED50) which caused 50% of the animals to fall out after certain test times was determined graphically: […]

mice [2] = test: Activity on the spontaneous motility in mice (inhibition, photoelectric barriers, Friebel, Sommer and Varadan); type: in vivo, SPF-NMRI-mice, female; settings: Mus musculus, po, read-out: ED50 (50% inhibition of spontaneous motility)
Method: 1. Activity on the spontaneous motility in mice:
The inhibition of spontaneous motility was determined with the aid of photoelectric barriers using an adaption of the method of Friebel, Sommer and Varadan (Arzneimittelforschung 9, 126 (1959)). SPF-NMRI-mice from our own breeding colony, having a body weight between 20 and 26 gm, were used. The number of interruptions in the flow of light was measured by ten photoelectric cells uniformly distributed in the bottom of a cylindrical cage, 25 cm in diameter, using a counting device. Thus, the spontaneous motility was registered as the animals moved over the bottom of the cage. 5 female mice were placed in each cage and their activity after application of the substance was measured for different periods of time relative to control mice. The present decrease in motility observed after application of various dosages relative to sham treated control animals was determined by graphical extrapolation, so that the dosage necessary for a 50% inhibition of spontaneous motility (ED50) could be obtained: […]

[3] = Acute Toxicity (oral, Litchfield and Wilcoxon); type: in vivo; settings: mouse, in vivo, po; mice; death within 14 days after application
Method: (§1) The acute toxicity was determined after oral administration to groups of 10 mice (sex ratio 1:1) from our own breeding colony.

mice [4] = test: Acute Toxicity (oral, Litchfield and Wilcoxon); type: in vivo; settings: p.o., within 14 days, printed beside LD50 >3200 mgm/kg
Method: as §1

SMILES	ED50 (mice [1]; after 30-60 minutes) [mg/kg]	ED50 (mice [1]; after 90-120 minutes) [mg/kg]	ED50 (mice [1]; after 210-240 minutes) [mg/kg]	ED50 (mice [1]; after 270-300 minutes) [mg/kg]	ED50 (mice [2]; after 30-45 minutes) [mg/kg]	ED50 (mice [2]; after 90-105 minutes) [mg/kg]	ED50 (mice [2]; after 150-165 minutes) [mg/kg]	LD50 at 336 h [3] [mg/kg]	animals died (mice [4])
CC(C)Cc1ccc([C@]2(O)C(C)(C)[C@@H](N3CCN(c4ccccn4)CC3)C2(C)C)cc1 [M]	4	4	3	2	9	> 3	0.4	–	–
CCCCc1ccc([C@]2(O)C(C)(C)[C@@H](N3CCN(c4ccccc4)CC3)C2(C)C)cc1 [Q]	> 200	22	8	8	34	> 3	4	–	–
CC(C)c1ccc([C@]2(O)C(C)(C)[C@@H](N3CCN(c4ccccc4)CC3)C2(C)C)cc1 [F]	29	4	2	3	95	5	2	> 800	–
CCC(C)c1ccc([C@]2(O)C(C)(C)[C@@H](N3CCN(c4ccccn4)CC3)C2(C)C)cc1 (stereo partly shown) [L]	5	4	2	1	7	1	1	162	–
COc1ccc(N2CCN([C@H]3C(C)(C)[C@](O)(c4ccc(O)cc4)C3(C)C)CC2)cc1 [C]	20	16	34	15.5	11	7.5	6	> 6400	–
CCC(C)c1ccc([C@]2(O)C(C)(C)[C@@H](N3CCN(c4ccccc4)CC3)C2(C)C)cc1 (stereo partly shown) [O]	1	1	2	1	9	3	2	800	–
CC(C)(C)c1ccc([C@]2(O)C(C)(C)[C@@H](N3CCN(c4ccccn4)CC3)C2(C)C)cc1 [I]	16	10	17	14	16	3	3	–	–
CC(C)Cc1ccc([C@]2(O)C(C)(C)[C@@H](N3CCN(c4ccccc4)CC3)C2(C)C)cc1 [N]	65	3	2	3	8	2	1	–	–
CC(C)(C)c1ccc([C@]2(O)C(C)(C)[C@@H](N3CCN(c4ccccc4)CC3)C2(C)C)cc1 [K]	48	8	6	1	15	3	2	–	–
CC1(C)[C@H](N2CCN(c3ccccn3)CC2)C(C)(C)[C@@]1(O)c1ccc(O)cc1 [A]	5.5	7.5	8.5	7.5	7.5	11	6	338	–
COc1ccc([C@]2(O)C(C)(C)[C@@H](N3CCN(c4ccccc4)CC3)C2(C)C)cc1OC [D]	> 40	32	16	14	26	22	3	2900	–
CC1(C)[C@H](N2CCN(c3ccccc3)CC2)C(C)(C)[C@@]1(O)c1ccc(O)cc1 [B]	26	11	6	5.5	> 50	3	4	1340	–
CCCCc1ccc([C@]2(O)C(C)(C)[C@@H](N3CCN(c4ccccn4)CC3)C2(C)C)cc1 [P]	15	4	3	6	9	3	2	–	–
CC1(C)[C@H](N2CCN(c3ccccn3)CC2)C(C)(C)[C@@]1(O)c1cccc(Cl)c1 [R]	46	8	8	11	> 25	12	13	–	–
CC(C)c1ccc([C@]2(O)C(C)(C)[C@@H](N3CCN(c4ccccn4)CC3)C2(C)C)cc1 [G]	11	8	3	8	7	3	5	118	–
CC1(C)[C@H](N2CCN(c3ccccn3)CC2)C(C)(C)[C@@]1(O)c1ccc(Cl)cc1 [H]	13	22	19	15	> 13	31	> 13	442	–
CC1(C)[C@H](N2CCN(c3ccc(O)cc3)CC2)C(C)(C)[C@@]1(O)c1ccc(O)cc1 [E]	10	13	9	3	5	5	< 2.5	> 3200	0 out of 10

Reference: patent US3992536A, “Pharmaceutical compositions containing a 1-phenyl-2,2,4,4-C1 -C2 alkyl-3-[4-phenyl of pyridyl)-piperazino]-cyclobutanol-(1) and method of use” (Boehringer Ingelheim GmbH, priority 1972, dated 1976)
